From patent publication US20040266747A1, “Long chain fatty alcohol substituents in antineoplastic agents” (priority 2001, published 2004)
Converted amounts (≈) assume the structure as drawn.

Tests used:
[1] = tested on: EA.hy 926; assay: Cytotoxic activity, MTT colorimetric cell growth assay; assay type: cell-based; details: Homo sapiens; EA.hy 926 cells, 72 h cultivation with agent, 37° C.; read-out: Cell line and cyctotoxic acivity IC50, EA.hy 926
Procedure: (§1) Experiments were performed in microtiter plates (2×10^4 cells/cm^2) at 37° C. After a precultivation period of 24 h the antineoplastic agent was added and cultivation was continued for 72 h. Cell growth was determined by a colorimetric assay based on the conversion of 3-(4,5-dimethyl-2-thiazolyl)-2,5-diphenyltetrazolium (MMT) to a blue formazan product using live mitochondria according to Mosmann, J. Immunolog. Methods 1983, 65, 55.

[2] = tested on: MHEC 5T; assay: as above; assay type: cell-based; details: MHEC5-T; MHEC 5T cells, 72 h cultivation with agent, 37° C.; read-out: Cell line and cyctotoxic acivity IC50, MHEC 5T
Procedure: as §1

SMILES: O=c1[nH]c(=O)n(COCCCCCCCCCCCCO)cc1F [Compound 3b, 5-Fluoro-1-((12′-hydroxydodecyloxy)-methyl)-uracil]
- IC50 [1]: 45 µg/mL (≈ 131 µM)
- IC50 [2]: 14 µg/mL (≈ 40.6 µM)
